Common to all, as to experiment: cell-based
The target in assay [1] is hα9α10[L7H] nAChR (Homo sapiens, UniProt Q9GZZ6+Q9UGM1, L31H). Type of assay: cell-based.
In assay [2] the target is rα9α10 nAChR (Rattus norvegicus, UniProt P43144+Q9JLB5).
In assay [3] the target is hα9rα10 nAChR (UniProt Q9JLB5+Q9UGM1). Further details: species or system human α9 and rat α10.
Assay [4] concerns the target hα9α10 nAChR (Homo sapiens, UniProt Q9GZZ6+Q9UGM1).

The structures appear in SMILES notation. Positions of bridges follow the written chain, without caps; N, C: chain ends. Residues, ends and D or L forms follow the SMILES beside them.

Chain of hα9α10 nAChR (Q9UGM1 26-479 limits assumed): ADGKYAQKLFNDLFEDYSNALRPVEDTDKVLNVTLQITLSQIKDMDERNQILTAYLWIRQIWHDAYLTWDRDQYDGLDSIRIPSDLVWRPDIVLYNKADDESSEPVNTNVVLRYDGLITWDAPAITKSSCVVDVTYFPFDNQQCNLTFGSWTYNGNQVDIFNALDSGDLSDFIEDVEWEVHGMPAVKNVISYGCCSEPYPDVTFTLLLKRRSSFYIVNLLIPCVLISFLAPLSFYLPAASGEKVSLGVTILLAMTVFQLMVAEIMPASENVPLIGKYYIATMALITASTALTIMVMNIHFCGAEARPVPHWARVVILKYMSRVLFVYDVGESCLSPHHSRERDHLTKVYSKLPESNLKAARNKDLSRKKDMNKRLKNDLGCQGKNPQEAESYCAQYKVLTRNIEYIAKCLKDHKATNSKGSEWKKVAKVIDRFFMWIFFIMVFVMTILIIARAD
Chain of hα9α10 nAChR (Q9GZZ6 25-450 limits assumed): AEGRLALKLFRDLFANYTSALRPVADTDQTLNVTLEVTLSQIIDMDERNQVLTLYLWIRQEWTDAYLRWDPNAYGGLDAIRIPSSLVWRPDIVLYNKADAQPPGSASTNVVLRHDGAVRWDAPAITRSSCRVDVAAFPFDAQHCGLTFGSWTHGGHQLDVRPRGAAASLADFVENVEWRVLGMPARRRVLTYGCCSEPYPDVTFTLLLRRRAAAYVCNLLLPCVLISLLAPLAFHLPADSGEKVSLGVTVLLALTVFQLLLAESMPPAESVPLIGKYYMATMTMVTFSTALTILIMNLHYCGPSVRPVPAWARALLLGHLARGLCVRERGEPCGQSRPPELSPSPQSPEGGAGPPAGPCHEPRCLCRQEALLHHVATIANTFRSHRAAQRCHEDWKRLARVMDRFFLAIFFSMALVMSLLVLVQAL
Chain of hα9rα10 nAChR (Q9UGM1 26-479 limits assumed): as the sequence (Q9UGM1 26-479 limits assumed) above
Chain of hα9rα10 nAChR (Q9JLB5 25-447 limits assumed): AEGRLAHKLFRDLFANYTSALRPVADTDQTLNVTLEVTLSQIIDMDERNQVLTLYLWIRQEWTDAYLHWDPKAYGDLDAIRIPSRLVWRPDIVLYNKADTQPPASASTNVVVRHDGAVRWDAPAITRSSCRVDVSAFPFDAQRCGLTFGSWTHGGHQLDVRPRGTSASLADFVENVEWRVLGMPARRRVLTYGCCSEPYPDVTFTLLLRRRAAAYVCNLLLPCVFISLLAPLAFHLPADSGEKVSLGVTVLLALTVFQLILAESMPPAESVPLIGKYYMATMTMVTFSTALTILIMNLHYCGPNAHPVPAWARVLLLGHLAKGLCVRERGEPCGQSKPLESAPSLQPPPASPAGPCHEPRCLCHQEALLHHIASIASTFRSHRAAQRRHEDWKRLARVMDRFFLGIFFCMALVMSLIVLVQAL
Chain of hα9α10[L7H] nAChR (Q9UGM1 26-479 limits assumed, stated change not applied): as the sequence (Q9UGM1 26-479 limits assumed) above
Chain of hα9α10[L7H] nAChR (Q9GZZ6 25-450 L31H limits assumed, stated change not applied): as the sequence (Q9GZZ6 25-450 limits assumed) above, with L7H counted along it
Chain of rα9α10 nAChR (P43144 26-479 limits assumed): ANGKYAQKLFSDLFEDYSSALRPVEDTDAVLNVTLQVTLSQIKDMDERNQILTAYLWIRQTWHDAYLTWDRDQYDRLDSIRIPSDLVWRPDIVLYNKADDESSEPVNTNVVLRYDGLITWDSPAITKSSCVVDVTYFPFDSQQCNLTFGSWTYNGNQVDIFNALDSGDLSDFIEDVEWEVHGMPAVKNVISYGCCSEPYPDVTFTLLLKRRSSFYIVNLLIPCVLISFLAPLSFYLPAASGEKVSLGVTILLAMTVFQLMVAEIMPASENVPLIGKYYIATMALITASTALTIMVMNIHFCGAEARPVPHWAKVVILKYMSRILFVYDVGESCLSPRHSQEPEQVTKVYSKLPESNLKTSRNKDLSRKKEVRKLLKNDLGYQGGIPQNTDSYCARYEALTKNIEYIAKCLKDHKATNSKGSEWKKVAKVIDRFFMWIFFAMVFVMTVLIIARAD
Chain of rα9α10 nAChR (Q9JLB5 25-447 limits assumed): as the sequence (Q9JLB5 25-447 limits assumed) above

For the molecule `CSCC[C@H](NC(=O)[C@@H](NC(=O)[C@@H]1CSSC[C@@H]2NC(=O)[C@H](CC(=O)O)NC(=O)[C@H](C)NC(=O)[C@H](CCCNC(=N)N)NC(=O)[C@H](C)NC(=O)[C@@H]3CSSC[C@H](NC(=O)CNC(=O)[C@H](Cc4c[nH]cn4)NC(=O)CNC(=O)[C@H](CCCNC(=N)N)NC(=O)[C@H](Cc4c[nH]c5ccccc45)NC(=O)[C@H]([C@@H](C)O)NC(=O)[C@H](Cc4c[nH]cn4)NC(=O)[C@H](Cc4ccc(O)cc4)NC(=O)[C@H](C(C)C)NC(=O)[C@H](CSSC[C@H](NC(=O)[C@H](CC(C)C)NC(=O)[C@H](CCCNC(=N)N)NC(=O)[C@@H](N)[C@@H](C)O)C(=O)N[C@@H](CO)C(=O)N[C@@H]([C@@H](C)O)C(=O)N[C@@H](CCSC)C(=O)N[C@@H](CO)C(=O)N3)NC(=O)[C@H]([C@@H](C)O)NC2=O)C(=O)N[C@@H](CO)C(=O)N1)C(C)C)C(=O)O` [GeXXA-CTD] (H-TRLCSTMSCARADCTCVYHTWRGHGCSCVM-OH; disulfide 4-16, 9-26, 14-28), the IC50 came out at 183 nM in assay [1], 198 nM in assay [2], 224 nM in assay [3] and 2020 nM in assay [4].

What is called IC50 is the concentration needed to halve the response being measured.

For the origin of these results see paper PMC4585798 (Scientific Reports, 2015).
